Measured values from PMC4775402 (Pharmacological research, 2016).

Tests used:
WT C3AR1 = WT C3AR1 (Homo sapiens, UniProt Q16581); assay: Label-free DMR agonist response, HEK293T expressing WT C3AR1; type: cell-based
ΔPDZ C3AR1 = ΔPDZ C3AR1 (Homo sapiens, UniProt Q16581); assay: Label-free DMR agonist response, HEK293T expressing ΔPDZ C3AR1; type: cell-based
WT ADRA1D = details: cited from earlier work
ΔPDZ ADRA1D = details: cited from earlier work
WT P2RY1 = WT P2RY1 (Homo sapiens, UniProt P47900); assay: Label-free DMR agonist response, HEK293T expressing WT P2RY1; type: cell-based
Sequence of WT P2RY1 (P47900 whole entry): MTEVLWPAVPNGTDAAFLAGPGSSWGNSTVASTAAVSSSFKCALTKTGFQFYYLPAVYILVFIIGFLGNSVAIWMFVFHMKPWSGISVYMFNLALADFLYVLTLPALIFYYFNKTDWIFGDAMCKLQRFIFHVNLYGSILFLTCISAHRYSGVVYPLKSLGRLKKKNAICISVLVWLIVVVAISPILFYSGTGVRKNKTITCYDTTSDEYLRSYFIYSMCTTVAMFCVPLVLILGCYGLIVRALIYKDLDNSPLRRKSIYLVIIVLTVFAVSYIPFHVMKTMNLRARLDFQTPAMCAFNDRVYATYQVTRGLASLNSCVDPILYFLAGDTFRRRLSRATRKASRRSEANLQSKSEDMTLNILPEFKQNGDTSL

ΔPDZ P2RY1 = ΔPDZ P2RY1 (Homo sapiens, UniProt P47900); assay: Label-free DMR agonist response, HEK293T expressing ΔPDZ P2RY1; type: cell-based
Sequence of ΔPDZ P2RY1 (P47900 1-369 limits assumed, stated change not applied): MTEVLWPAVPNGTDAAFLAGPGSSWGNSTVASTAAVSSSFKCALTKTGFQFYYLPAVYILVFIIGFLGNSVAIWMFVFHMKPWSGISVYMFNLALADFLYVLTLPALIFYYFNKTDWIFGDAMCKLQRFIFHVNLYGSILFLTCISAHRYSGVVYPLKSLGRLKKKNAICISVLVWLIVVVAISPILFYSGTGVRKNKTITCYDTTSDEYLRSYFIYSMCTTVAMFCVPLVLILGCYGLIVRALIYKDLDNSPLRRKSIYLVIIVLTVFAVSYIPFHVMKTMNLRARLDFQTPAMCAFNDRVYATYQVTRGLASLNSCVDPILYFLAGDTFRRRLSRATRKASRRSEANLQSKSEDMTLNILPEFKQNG

WT P2RY12 = WT P2RY12 (Homo sapiens, UniProt Q9H244); assay: Label-free DMR agonist response, HEK293T expressing WT P2RY12; type: cell-based
Sequence of WT P2RY12 (Q9H244 whole entry, one chain of several): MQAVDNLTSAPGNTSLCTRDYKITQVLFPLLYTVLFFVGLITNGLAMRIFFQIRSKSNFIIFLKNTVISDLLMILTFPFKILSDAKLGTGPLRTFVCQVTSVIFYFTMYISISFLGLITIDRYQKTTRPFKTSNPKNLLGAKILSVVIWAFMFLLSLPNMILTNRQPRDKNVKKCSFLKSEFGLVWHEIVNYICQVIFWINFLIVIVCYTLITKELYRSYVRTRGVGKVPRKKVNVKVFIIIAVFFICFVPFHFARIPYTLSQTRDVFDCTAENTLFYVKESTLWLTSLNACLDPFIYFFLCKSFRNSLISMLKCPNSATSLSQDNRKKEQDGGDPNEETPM

ΔPDZ P2RY12 = ΔPDZ P2RY12 (Homo sapiens, UniProt Q9H244); assay: Label-free DMR agonist response, HEK293T expressing ΔPDZ P2RY12; type: cell-based
Sequence of ΔPDZ P2RY12 (Q9H244 1-338 limits assumed, stated change not applied, one chain of several): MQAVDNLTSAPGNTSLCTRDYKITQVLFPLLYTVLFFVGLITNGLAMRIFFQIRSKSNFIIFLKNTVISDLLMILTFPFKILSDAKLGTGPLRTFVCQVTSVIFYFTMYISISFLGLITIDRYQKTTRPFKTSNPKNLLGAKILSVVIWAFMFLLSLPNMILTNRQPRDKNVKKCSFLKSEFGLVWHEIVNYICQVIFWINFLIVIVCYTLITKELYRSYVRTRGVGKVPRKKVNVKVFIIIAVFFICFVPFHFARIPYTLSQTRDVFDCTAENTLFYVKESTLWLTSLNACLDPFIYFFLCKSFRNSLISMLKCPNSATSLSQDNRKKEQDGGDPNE

Sequence of WT C3AR1 (Q16581 whole entry): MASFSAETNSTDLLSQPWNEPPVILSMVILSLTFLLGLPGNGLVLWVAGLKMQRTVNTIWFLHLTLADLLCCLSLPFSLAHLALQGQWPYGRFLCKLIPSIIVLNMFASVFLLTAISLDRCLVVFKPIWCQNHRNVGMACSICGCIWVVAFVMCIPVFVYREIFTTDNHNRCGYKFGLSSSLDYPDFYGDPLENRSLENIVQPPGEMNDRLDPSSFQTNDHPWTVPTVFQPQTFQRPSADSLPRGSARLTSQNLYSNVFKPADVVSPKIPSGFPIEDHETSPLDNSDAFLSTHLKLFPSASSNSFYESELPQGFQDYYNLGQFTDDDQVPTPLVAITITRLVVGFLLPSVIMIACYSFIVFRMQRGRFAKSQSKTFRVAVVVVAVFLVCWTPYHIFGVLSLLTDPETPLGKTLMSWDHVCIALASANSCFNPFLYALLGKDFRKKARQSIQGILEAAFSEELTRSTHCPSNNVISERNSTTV
Sequence of ΔPDZ C3AR1 (Q16581 1-478 limits assumed, stated change not applied): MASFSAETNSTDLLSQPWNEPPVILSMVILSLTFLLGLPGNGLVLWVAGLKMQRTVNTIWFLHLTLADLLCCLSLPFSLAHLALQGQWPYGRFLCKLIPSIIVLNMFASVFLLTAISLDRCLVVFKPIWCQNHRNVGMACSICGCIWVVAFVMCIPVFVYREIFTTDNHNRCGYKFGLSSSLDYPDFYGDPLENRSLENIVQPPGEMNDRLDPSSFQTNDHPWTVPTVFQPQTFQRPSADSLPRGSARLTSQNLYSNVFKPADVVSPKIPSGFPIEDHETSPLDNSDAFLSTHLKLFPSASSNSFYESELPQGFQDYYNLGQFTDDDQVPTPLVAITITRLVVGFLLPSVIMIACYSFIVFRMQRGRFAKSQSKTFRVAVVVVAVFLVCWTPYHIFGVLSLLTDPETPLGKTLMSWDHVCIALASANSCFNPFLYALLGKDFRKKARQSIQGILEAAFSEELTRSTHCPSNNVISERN

SMILES: NC(=O)Cc1ccccc1 [Benzeneacetamide, benzeneacetamide]
- WT Max (DMR) (WT C3AR1; WT C3AR1, maximal agonist DMR response): 36.90 ± 1.82
- WT TTP (WT C3AR1; WT C3AR1, time to peak DMR): 4.50 s
- ΔPDZ Max (DMR) (ΔPDZ C3AR1; ΔPDZ C3AR1, maximal agonist DMR response): 38.77 ± 2.59
- ΔPDZ TTP (ΔPDZ C3AR1; ΔPDZ C3AR1, time to peak DMR): 3.50 s

SMILES: CNC[C@H](O)c1cccc(O)c1 [phenylephrine]
- enhancement of the DMR response (WT ADRA1D; ADRA1D with overexpression of SCRIB alone): ~5 fold
- activation, DMR (in words) (WT ADRA1D; WT ADRA1D): weak activation
- activation, DMR (in words) (ΔPDZ ADRA1D): weak activation

SMILES: O=c1ccn([C@@H]2O[C@H](COP(=O)(O)OP(=O)(O)OP(=O)(O)O)[C@@H](O)[C@H]2O)c(=O)[nH]1 [UTP]
- WT pEC50 (WT P2RY1; HEK293T, WT P2RY1, DMR CRC): −5.39 ± 0.15
- WT Max (DMR) (WT P2RY1; HEK293T, WT P2RY1, maximal agonist DMR response): 116.19 ± 2.22
- WT TTP (WT P2RY1; HEK293T, WT P2RY1, time to peak DMR): 4.87 s
- Agonist potency (in words) (WT P2RY1; P2Y receptors (P2RY1), DMR): micromolar
- ΔPDZ pEC50 (ΔPDZ P2RY1; ΔPDZ P2RY1, DMR CRC): −5.69 ± 0.19
- ΔPDZ Max (DMR) (ΔPDZ P2RY1; ΔPDZ P2RY1, maximal agonist DMR response): 118.68 ± 10.27
- ΔPDZ TTP (ΔPDZ P2RY1; ΔPDZ P2RY1, time to peak DMR): 5.27 s
- WT pEC50 (WT P2RY12; HEK293T, WT P2RY12, DMR CRC): −5.47 ± 0.07
- WT Max (DMR) (WT P2RY12; HEK293T, WT P2RY12, maximal agonist DMR response): 170.04 ± 2.93
- WT TTP (WT P2RY12; HEK293T, WT P2RY12, time to peak DMR): 5.40 s
- Agonist potency (in words) (WT P2RY12; P2Y receptors (P2RY12), DMR): micromolar
- ΔPDZ pEC50 (ΔPDZ P2RY12; ΔPDZ P2RY12, DMR CRC): −5.70 ± 0.08
- ΔPDZ Max (DMR) (ΔPDZ P2RY12; ΔPDZ P2RY12, maximal agonist DMR response): 192.60 ± 6.35
- ΔPDZ TTP (ΔPDZ P2RY12; ΔPDZ P2RY12, time to peak DMR): 5.20 s
